Test results from publication PMC10584170, “Machine learning-based phenotypic imaging to characterise the targetable biology of Plasmodium falciparum male gametocytes for the development of transmission-blocking antimalarials” (PLOS Pathogens, 2023).

Experiments:
[1] = test system: P. falciparum male gametocytes; experiment: P. falciparum Dual Gamete Formation Assay (PfDGFA), male readout (exflagellation); format: cell-based, Plasmodium falciparum NF54; conditions: for Average inhibition male (%): average of replicates; for % inhibition male (individual replicates) R1: replicate R1; for % inhibition male (individual replicates) R3: replicate R3; for % inhibition male (individual replicates) R4: replicate R4; for Activity: hit = >50% inhibition in male or female readout in at least 3 replicates, 0 = no class assigned
Procedure, shortened: (§1)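 First, day-14 P. falciparum NF54 gametocytes receive compound for 24 h at 37°C in 1% O2/3% CO2. Next, ookinete medium with Cy3 anti-Pfs25 triggers gametogenesis at 28°C and male exflagellation is imaged. Finally, after 24 h in the dark, Cy3-labelled females are imaged.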

[2] = test system: P. falciparum female gametocytes; experiment: P. falciparum Dual Gamete Formation Assay (PfDGFA), female readout (Pfs25-positive female gametes); format: cell-based, Plasmodium falciparum NF54; conditions: for Average inhibition female (%): average of replicates; for % inhibition female (individual replicates) R1: replicate R1; for % inhibition female (individual replicates) R3: replicate R3; for % inhibition female (individual replicates) R4: replicate R4
Procedure, shortened: as §1

[3] = 2µM, 24h preincubation with gametocytes
[4] = 2µM, 24h preincubation with gametocytes prior to induction of gametogenesis
[5] = 2µM, 24h preincubation, hits selected on >50% inhibition in the male readout across replicates
[6] = PfDGFA at 2µM, 24h preincubation
[7] = 2µM, 24h preincubation, hits selected on >50% inhibition in the female readout across replicates
[8] = 2µM, 24h preincubation, number of replicates with >50% inhibition in the male readout
[9] = 2µM, 24h preincubation, number of replicates with >50% inhibition in the female readout
[10] = PfDGFA at 2µM, 24h preincubation with gametocytes prior to induction of gametogenesis

| SMILES | Average inhibition male (%) [1, 4] | % inhibition male (individual replicates) R1 [1, 4] | % inhibition male (individual replicates) R3 [1, 4] | % inhibition male (individual replicates) R4 [1, 4] | HitlevelM [1, 5] | Activity [1, 6] | Average inhibition female (%) [2, 4] | % inhibition female (individual replicates) R1 [2, 4] | % inhibition female (individual replicates) R3 [2, 4] | % inhibition female (individual replicates) R4 [2, 4] | HitlevelF [2, 7] | % inhibition male (individual replicates) R1 [1, 10] | % inhibition male (individual replicates) R4 [1, 10] | Average inhibition male (%) [1, 6] | % inhibition female (individual replicates) R1 [2, 10] | % inhibition female (individual replicates) R3 [2, 10] | % inhibition female (individual replicates) R4 [2, 10] | Average inhibition female (%) [2, 6] | other results |
| --- | --- | --- | --- | --- | --- | --- | --- | --- | --- | --- | --- | --- | --- | --- | --- | --- | --- | --- | --- |
| CCn1c(-c2nonc2N)nc2c(-c3ccccc3)ncc(OCCCCNCCc3ncc[nH]3)c21.O=C(O)C(F)(F)F [TCMDC-136000] |  |  |  |  |  |  |  |  |  |  |  |  |  |  |  |  |  |  | Average inhibition male (%) [1, 3]: 92.8%; % inhibition male (individual replicates) R1 [1, 3]: 92.7%; % inhibition male (individual replicates) R3 [1, 3]: 86.1%; % inhibition male (individual replicates) R4 [1, 3]: 98.9%; Average inhibition female (%) [2, 3]: 36.6%; % inhibition female (individual replicates) R1 [2, 3]: 29.5%; % inhibition female (individual replicates) R3 [2, 3]: 30.1%; % inhibition female (individual replicates) R4 [2, 3]: 56.9% |
| COc1ccc2ncc(F)c(CCN3C[C@H](CNCc4nc5c(cc4Cl)OCC(=O)N5)[C@H](O)C3)c2n1.Cl [TCMDC-136031] | 6.8% | 19.6% | -8.5% | 9.5% | 0 | 0 | 9.3% | 13.9% | -6.7% | 27.7% | 0 |  |  |  |  |  |  |  |  |
| COc1ccc2nccc([C@H](O)CN3CCC(NCc4ccc5c(c4C)OCCO5)CC3)c2n1.Cl [TCMDC-136066] | -9.6% | -4.0% | -34.1% | 0.2% | 0 | 0 | 6.6% | 21.2% | -26.0% | 9.8% | 0 |  |  |  |  |  |  |  |  |
| Cn1cc(CN2CCC(OC(c3ccccc3)c3ccc(Cl)cc3)CC2)cn1 (centres unmarked) [TCMDC-136165] | 26.9% | 21.0% | 11.7% | 55.6% |  |  | 27.9% | 28.0% | 20.7% | 33.3% |  |  |  |  |  |  |  |  | HitlevelM [1, 8]: 1; HitlevelF [2, 9]: 0 |
| CCn1c(-c2nonc2N)nc2c(-c3cccc(NC(=O)Nc4ccccc4OC)c3)ncc(OCCCN)c21.O=C(O)C(F)(F)F [TCMDC-136190] | 38.6% | 46.0% | 15.9% | 54.2% |  |  | 31.3% | 29.0% | 9.1% | 20.1% |  |  |  |  |  |  |  |  | HitlevelM [1, 8]: 1; HitlevelF [2, 9]: 1 |
| Cc1[nH]cc(Br)c(=O)c1-c1ccc(Oc2ccc(OC(F)(F)F)cc2)cc1 [TCMDC-136197] | -14.5% | -14.1% | -25.2% | -5.8% | 0 | 0 | 8.0% | 22.6% | 0.02% | -5.7% | 0 |  |  |  |  |  |  |  |  |
| Cl.c1ccc2c(C3CCN(CCCCOc4ccc5c(c4)CCN(CC4CC4)CC5)CC3)c[nH]c2c1 [TCMDC-136244] | 8.5% | 7.6% | -1.4% | 14.2% |  |  | 24.9% | 21.4% | 5.1% | 24.5% |  |  |  |  |  |  |  |  | HitlevelM [1, 8]: 0; HitlevelF [2, 9]: 0 |
| Cc1ccc(-n2c(C)nc3c(Nc4ccc(-c5ccncc5)cc4)ncnc32)c(C)c1 [TCMDC-136289] | 51.6% | 92.5% |  | -28.8% | 2 | 0 | 6.8% | 7.7% | 15.7% | 3.5% | 0 |  |  |  |  |  |  |  |  |
| CN(C)CCCNCc1cn(S(=O)(=O)c2ccccc2Cl)c2ccccc12.Cl [TCMDC-136302] | 39.6% | 57.4% | 42.5% | 62.3% |  |  | 50.5% | 52.5% | 48.5% | 54.4% |  |  |  |  |  |  |  |  | HitlevelM [1, 8]: 2; HitlevelF [2, 9]: 2 |
| COc1ccc(CNC(=O)c2cnc3cc(-c4c(C)noc4C)ccc3c2Nc2ccccc2C(C)(C)C)cc1.Cl [TCMDC-136367] |  |  |  |  |  |  |  |  |  |  |  | -0.3% | -17.2% | -9.5% | -1.1% | -0.6% | 13.4% | 2.7% |  |
| COc1cc(Br)c(S(=O)(=O)n2cc(CN3CCC(N)CC3)c3cc(Cl)ccc32)cc1OC.O=C(O)C(F)(F)F [TCMDC-136384] | 17.6% | 5.7% | -10.3% | 29.6% | 0 | 0 | 13.1% | 17.7% | 22.3% | -2.1% | 0 |  |  |  |  |  |  |  |  |
| COc1cc(C(=O)N2CCN(C(C)C)CC2)ccc1CN(C)CCCCN1CCN(c2cccc(Cl)c2Cl)CC1.Cl [TCMDC-136506] | 24.1% | 21.0% | -5.5% | 30.9% | 1 | 0 | 13.2% | 17.9% | 17.6% | 12.7% | 0 |  |  |  |  |  |  |  |  |
| CN(C)Cc1c(O)ccc2[nH]c(-c3cccc(F)c3)nc12 [TCMDC-136535] |  |  |  |  |  |  |  |  |  |  |  | -6.0% | 8.9% | -3.8% | 14.3% | -20.0% | -2.1% | -3.2% | % inhibition male (individual replicates) R3 [1, 10]: -26.3% |
| C[C@@H](CNc1ccnc(Nc2ccc3[nH]c(=O)[nH]c3c2)n1)c1ccccc1 [TCMDC-136803] |  |  |  |  |  |  |  |  |  |  |  | -12.9% | -10.1% | -9.4% | 0.6% | -4.3% | 9.5% | 0.458% |  |
| Cc1cc(N2CCCN(CC3CCCCC3)CC2)nc(Nc2ccc(Br)cc2)n1 [TCMDC-137133] | -4.7% | -4.0% | -2.0% | -6.5% | 0 | 0 | 14.4% | 13.7% | 2.2% | 35.3% | 0 |  |  |  |  |  |  |  |  |
| CCOc1cc(Cc2cnc(N)nc2N)cc(OCC)c1O [TCMDC-137181] |  |  |  |  |  |  |  |  |  |  |  | 23.6% | 11.2% | 22.7% | -0.02% | 1.9% | -15.6% | -3.9% | % inhibition male (individual replicates) R3 [1, 10]: 21.9% |
| CNC(=O)C(NC(=O)c1ccccc1C(=O)OC)c1ccccc1 (centres unmarked) [TCMDC-137226] |  |  |  |  |  |  |  |  |  |  |  | 12.9% | -18.5% | -3.7% | 18.3% | -7.8% | -6.5% | 2.2% | % inhibition male (individual replicates) R3 [1, 10]: -28.2% |
| COc1cc(Cc2cnc(N)nc2N)cc(OCCCCC2SC(=O)NC2=O)c1Br (centres unmarked) [TCMDC-137240] |  |  |  |  |  |  |  |  |  |  |  | 22.0% | -19.8% | 3.4% | 12.9% | 1.7% | -5.0% | 2.6% | % inhibition male (individual replicates) R3 [1, 10]: 3.4% |
